What was measured:
Format in all cases: in vivo
[1] = system: sunflower (common oilseed sunflower, Helianthus annuus); test: Test B pre-/postemergence plant response; settings: Preemergence; for Sunflower plant response rating: 125 g ai/ha
Method in brief: (§1)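 Pre-em in loam/sand; post-em at 1–4 leaf (2–18 cm) in peat mix. Solvent + surfactant formulation. Greenhouse 13–15 d; visual % control vs untreated, 0–100.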

[2] = system: galium (catchweed bedstraw, Galium aparine); test: Test B pre-/postemergence plant response; settings: Preemergence; for Galium plant response rating: 125 g ai/ha
Method in brief: as §1

[3] = system: nightshade (eastern black nightshade, Solanum ptycanthum); test: Test B pre-/postemergence plant response; settings: Preemergence; for Nightshade plant response rating: 125 g ai/ha
Method in brief: as §1

[4] = system: barnyardgrass (Echinochloa crus-galli); test: Test B flooded paddy test; settings: for Plant response rating, Flood, Barnyardgrass: 250 g ai/ha, flooded paddy test, visual rating on 0 to 100 scale (0 no effect, 100 complete control) after 13 to 15 days; for Plant response rating, Barnyardgrass: Flood (flooded paddy test), 13 to 15 days; for Barnyardgrass plant response rating: Flood, scale 0 to 100 (0 no effect, 100 complete control)
Method in brief: (§2)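 Rice, umbrella sedge, ducksalad and barnyardgrass were grown to the 2-leaf stage, flooded to 3 cm, and compound was applied directly to the paddy water, with that depth kept throughout. After 13 to 15 days in the greenhouse, plants were visually rated against controls on a 0 (no effect) to 100 (complete control) scale.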

[5] = system: ducksalad (Heteranthera limosa); test: Test B flooded paddy test; settings: for Plant response rating, Flood, Ducksalad: 250 g ai/ha, flooded paddy test, visual rating on 0 to 100 scale (0 no effect, 100 complete control) after 13 to 15 days; for Plant response rating, Ducksalad: Flood (flooded paddy test), 13 to 15 days; for Ducksalad plant response rating: Flood, scale 0 to 100 (0 no effect, 100 complete control)
Method in brief: as §2

[6] = 31 g ai/ha, scale 0 to 100 (0 no effect, 100 complete control)
[7] = 62 g ai/ha, scale 0 to 100 (0 no effect, 100 complete control)
[8] = 31 g ai/ha, scale of 0 to 100 where 0 is no effect and 100 is complete control
[9] = 62 g ai/ha, scale 0 to 100, 0 is no effect, 100 is complete control
[10] = 125 g ai/ha, scale 0 to 100, 0 is no effect, 100 is complete control
[11] = 62 g ai/ha, scale of 0 to 100 where 0 is no effect and 100 is complete control

Compound	Plant response rating, Flood, Barnyardgrass [4]	Plant response rating, Barnyardgrass [4, 9]	Plant response rating, Barnyardgrass [4, 10]	Plant response rating, Flood, Ducksalad [5]	Plant response rating, Ducksalad [5, 9]	Plant response rating, Ducksalad [5, 10]	Plant response rating, Barnyardgrass [4, 11]	Barnyardgrass plant response rating ([4]; 31 g ai/ha)	Plant response rating, Ducksalad [5, 11]	Ducksalad plant response rating ([5]; 31 g ai/ha)	further results
3-cyclohexyl-5-[(2-hydroxy-6-oxo-1-cyclohexen-1-yl)carbonyl]-2-phenyl-4(3H)-pyrimidinone [Compound 128]	25	0	0	80	0	65					Plant response rating, Sunflower ([1]; 250 g ai/ha, 0 to 100 scale): 98; Plant response rating, Sunflower [1, 6]: 75; Plant response rating, Sunflower [1, 7]: 85; Sunflower plant response rating ([1]; 0 to 100 scale): 95; Plant response rating, Galium ([2]; 250 g ai/ha, 0 to 100 scale): 75; Plant response rating, Galium [2, 6]: 5; Plant response rating, Galium [2, 7]: 50; Galium plant response rating ([2]; 0 to 100 scale): 50; Plant response rating, Nightshade ([3]; 250 g ai/ha, 0 to 100 scale): 100; Plant response rating, Nightshade [3, 6]: 85; Plant response rating, Nightshade [3, 7]: 100; Nightshade plant response rating ([3]; 0 to 100 scale): 100; Plant response rating, Barnyardgrass [4, 8]: 0; Plant response rating, Ducksalad [5, 8]: 0
5-[(2-hydroxy-6-oxo-1-cyclohexen-1-yl)carbonyl]-2,3-diphenyl-4(3H)-pyrimidinone [Compound 2]	0	0	0	0	0	0					Sunflower plant response rating (0 to 100 scale) ([1]; 0 is no effect, 100 is complete control, rated after 13 to 15 days, application rate of this section not shown): 0; Plant response rating, Barnyardgrass [4, 8]: 0; Plant response rating, Ducksalad [5, 8]: 0
Cc1ccccc1-n1c(-c2ccccc2)ncc(C(=O)C2=C(O)CCCC2=O)c1=O [Compound 12]	0	0	0	55	25	35					Plant response rating, Sunflower ([1]; 250 g ai/ha, 0 to 100 scale): 100; Plant response rating, Sunflower [1, 6]: 95; Plant response rating, Sunflower [1, 7]: 98; Sunflower plant response rating ([1]; 0 to 100 scale): 98; Plant response rating, Galium ([2]; 250 g ai/ha, 0 to 100 scale): 95; Plant response rating, Galium [2, 6]: 0; Plant response rating, Galium [2, 7]: 50; Galium plant response rating ([2]; 0 to 100 scale): 90; Plant response rating, Nightshade ([3]; 250 g ai/ha, 0 to 100 scale): 100; Plant response rating, Nightshade [3, 6]: 100; Plant response rating, Nightshade [3, 7]: 100; Nightshade plant response rating ([3]; 0 to 100 scale): 100; Plant response rating, Barnyardgrass [4, 8]: 0; Plant response rating, Ducksalad [5, 8]: 0
O=C1CCCC(O)=C1C(=O)c1cnc(-c2ccccc2)n(-c2ccccc2F)c1=O [Compound 26]	0	0		85	75						Plant response rating, Sunflower ([1]; 250 g ai/ha, 0 to 100 scale): 95; Plant response rating, Sunflower [1, 6]: 60; Plant response rating, Sunflower [1, 7]: 90; Sunflower plant response rating ([1]; 0 to 100 scale): 90; Plant response rating, Galium ([2]; 250 g ai/ha, 0 to 100 scale): 98; Plant response rating, Galium [2, 6]: 0; Plant response rating, Galium [2, 7]: 50; Galium plant response rating ([2]; 0 to 100 scale): 90; Plant response rating, Nightshade ([3]; 250 g ai/ha, 0 to 100 scale): 100; Plant response rating, Nightshade [3, 6]: 85; Plant response rating, Nightshade [3, 7]: 100; Nightshade plant response rating ([3]; 0 to 100 scale): 100
Cc1cc(C)cc(-n2c(-c3ccccc3)ncc(C(=O)C3=C(O)CCCC3=O)c2=O)c1 [Compound 33]	40	20	30	95	75	80					Plant response rating, Sunflower ([1]; 250 g ai/ha, 0 to 100 scale): 90; Plant response rating, Sunflower [1, 6]: 65; Plant response rating, Sunflower [1, 7]: 75; Sunflower plant response rating ([1]; 0 to 100 scale): 75; Plant response rating, Galium ([2]; 250 g ai/ha, 0 to 100 scale): 90; Plant response rating, Galium [2, 6]: 0; Plant response rating, Galium [2, 7]: 10; Galium plant response rating ([2]; 0 to 100 scale): 50; Plant response rating, Nightshade ([3]; 250 g ai/ha, 0 to 100 scale): 100; Plant response rating, Nightshade [3, 6]: 80; Plant response rating, Nightshade [3, 7]: 100; Nightshade plant response rating ([3]; 0 to 100 scale): 100; Plant response rating, Barnyardgrass [4, 8]: 0; Plant response rating, Ducksalad [5, 8]: 60
COCCn1c(-c2cccc(Cl)c2)ncc(C(=O)C2=C(O)CCCC2=O)c1=O [Compound 147]	75		45	100		80	10	0	60	60	
CCCn1c(-c2cc(F)cc(F)c2)ncc(C(=O)C2=C(O)CCCC2=O)c1=O [Compound 152]	75		50	100		100	25	15	90	0	
CCCn1c(-c2cccc(C(F)(F)F)c2)ncc(C(=O)C2=C(O)CCCC2=O)c1=O [Compound 155]	45		20	95		85	0	0	60	0	
CCCn1c(-c2cc(C)cc(C)c2)ncc(C(=O)C2=C(O)CCCC2=O)c1=O [Compound 156]	60		40	100		80	20	0	65	0	
Cc1ccc(F)cc1-n1c(-c2cccc(Cl)c2)ncc(C(=O)C2=C(O)CCCC2=O)c1=O [Compound 157]			0			70		0		50	
O=C1CCCC(O)=C1C(=O)c1cnc(-c2ccccc2)n(C2CCSCC2)c1=O [Compound 164]	0		0	85		0	0	0	0	0	
O=C1CCCC(O)=C1C(=O)c1cnc(-c2cc(F)cc(F)c2)n(C2CCCCC2)c1=O [Compound 181]			70			90		0		85	
CCCn1c(-c2ccsc2)ncc(C(=O)C2=C(O)C3CCC(C3)C2=O)c1=O (stereo not shown) [Compound 227]	60		50	80		75	40	20			
O=C(C1=C(O)C2CCC(C2)C1=O)c1cnc(-c2ccsc2)n(CC2CCCO2)c1=O (stereo not shown) [Compound 229]	30		0	40		0	0	0	0	0	
CCCCn1c(-c2cccc(F)c2)ncc(C(=O)C2=C(O)C3CCC(C3)C2=O)c1=O (stereo not shown) [Compound 237]	30		0	100		90	0	0	65	0	
CCn1c(-c2ccccc2)ncc(C(=O)C2=C(O)C3CCC(C3)C2=O)c1=O (stereo not shown) [Compound 239]	15		0	80		70	0	0	0	0	
